Some results are limits rather than exact numbers.

IC50 data for 20 compounds are collected here from US11795165B2, “Tetrahydro-benzoazepine glycosidase inhibitors” (Asceneuron SA, priority 2018, dated 2023).

Sequence of His-Tagged hOGA (human O-GlcNAcase) (O60502 whole entry): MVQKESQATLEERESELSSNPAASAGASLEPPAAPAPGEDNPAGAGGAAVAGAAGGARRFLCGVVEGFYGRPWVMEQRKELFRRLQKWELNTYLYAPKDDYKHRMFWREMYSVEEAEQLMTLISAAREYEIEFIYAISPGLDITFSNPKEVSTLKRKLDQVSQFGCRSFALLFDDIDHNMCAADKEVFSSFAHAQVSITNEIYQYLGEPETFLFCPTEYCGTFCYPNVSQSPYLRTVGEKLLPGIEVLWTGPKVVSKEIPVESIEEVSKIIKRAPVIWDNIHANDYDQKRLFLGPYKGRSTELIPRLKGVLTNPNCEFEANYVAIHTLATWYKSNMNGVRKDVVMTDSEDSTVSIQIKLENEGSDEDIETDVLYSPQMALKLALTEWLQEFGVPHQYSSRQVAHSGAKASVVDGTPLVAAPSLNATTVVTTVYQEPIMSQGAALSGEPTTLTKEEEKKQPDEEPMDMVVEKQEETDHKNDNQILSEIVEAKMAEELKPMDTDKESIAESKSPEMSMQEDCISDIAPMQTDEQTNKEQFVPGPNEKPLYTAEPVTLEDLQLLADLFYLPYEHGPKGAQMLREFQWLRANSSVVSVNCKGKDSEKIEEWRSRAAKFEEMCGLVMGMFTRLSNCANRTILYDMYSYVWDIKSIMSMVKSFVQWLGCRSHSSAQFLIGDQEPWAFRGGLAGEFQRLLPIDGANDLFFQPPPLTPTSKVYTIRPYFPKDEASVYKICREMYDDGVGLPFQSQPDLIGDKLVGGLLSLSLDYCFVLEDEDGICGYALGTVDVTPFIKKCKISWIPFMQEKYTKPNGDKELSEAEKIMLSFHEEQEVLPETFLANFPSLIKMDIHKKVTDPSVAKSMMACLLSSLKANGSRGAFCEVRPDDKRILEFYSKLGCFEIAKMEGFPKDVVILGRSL

This assay has as its target His-Tagged hOGA (human O-GlcNAcase) (Homo sapiens (Human), UniProt O60502). As to the kind of experiment: Human O-GlcNAcase enzyme inhibition assay (OGA enzyme inhibition assay). The following applies: His-Tagged hOGA 20 nM, FL-GlcNAc 10 μM, 60 min at room temperature, pH 6.5; activity classes. It is filed as biochemical. The protocol: Example B01: Human O-GlcNAcase Enzyme Inhibition Assay
5 μl of the appropriate concentration of a solution of inhibitor in McIlvaine's Buffer (pH 6.5) in 2% DMSO (for a dose response curve calculation) is added into each well of a 384-well plate (Greiner, 781900). Then, 20 nM of His-Tagged hOGA and 10 μM of FL-GlcNAc (Fluorescein mono-beta-D-(2-deoxy-2-N-acetyl) glucopyranoside; Marker Gene Technologies Inc, M1485) were added to the 384-well plate for a final volume of 20 μl. After incubation for 60 min at room temperature, the reaction was terminated by the addition of 10 μL of stop buffer (200 mM glycine, pH 10.75). The level of fluorescence (Δexc 485 nm; (Δemm 520 nm) was read on a PHERAstar machine. The amount of fluorescence measured was plotted against the concentration of inhibitor to produce a sigmoidal dose response curve to calculate an IC50. All individual data was corrected by subtraction of the background (Thiamet 3 uM=100% inhibition) whilst 0.5% DMSO was considered as the control value (no inhibition).
On to `CSc1ccc2c(c1)CCN(C(C)c1ccc3scnc3c1)CC2` (racemic) [Example 111], for which the IC50 (as a rule, the concentration that gives 50% inhibition) was less than 50 nM.
`CSc1ccc2c(c1)CCCN(C(C)c1ccc3scnc3c1)C2` (racemic) [Example 112] gave an IC50 of 200 to 1000 nM.
The compound `COc1ccc2c(c1)CCN(C(C)c1ccc3scnc3c1)CC2O` (racemic) [Example 116] came in with an IC50 of 50 to 200 nM.
As for `CC(c1ccc2scnc2c1)N1CCc2cc(N)cnc2CC1` (racemic) [Example 117], the figure is less than 50 nM; as for `CC(c1ccc2scnc2c1)N1CCc2cc(NS(=O)(=O)C3CC3)cnc2CC1` (racemic) [Example 120], less than 50 nM; as for `CC(c1ccc2scnc2c1)N1CCCc2ncc(NS(=O)(=O)C3CC3)cc2C1` (racemic) [Example 121], 200 to 1000 nM.
Compound `CC(=O)Nc1ncc(CN2CCCc3ccccc3C2C)s1` (racemic) [Example 122] came in with an IC50 of 1000 to 10000 nM.
For `COc1ccc2c(c1)CCN(C(C)c1ccc3nsnc3c1)CC2` (single isomer, unassigned) [Example 3], the IC50 lay in the range of 1000 to 10000 nM.
`COc1ccc2c(c1)CCN(C(C)c1ccc3scnc3c1)CC2` (single isomer, unassigned) [Example 6] showed an IC50 of 200 to 1000 nM.
In turn, `COc1ccc2c(c1)CCN(C(C)c1ccc3c(c1)OCC3)CC2` (single isomer, unassigned) [Example 9] registered an IC50 of 50 to 200 nM.
For the compound `CC(c1ccc2scnc2c1)N1CCc2ccccc2CC1` (single isomer, unassigned) [Example 21], the 50% inhibitory concentration (IC50) was less than 50 nM.
The result for `CC(c1ccc2scnc2c1)N1CCc2ccccc2CC1` (single isomer, unassigned) [Example 22] reads 200 to 1000 nM; that for `CC(C)COc1ccc2c(c1)CCN(C(C)c1ccc3scnc3c1)CC2` (single isomer, unassigned) [Example 27, (R)-5-(1-(7-isobutoxy-1,2,4,5-tetrahydro-3H-benzo[d]azepin-3-yl)ethyl)benzo[d]thiazole or (S)-5-(1-(7-isobutoxy-1,2,4,5-tetrahydro-3H-benzo[d]azepin-3-yl)ethyl)benzo[d]thiazole], 200 to 1000 nM.
Compound `CC(c1ccc2scnc2c1)N1CCc2ccc(S(C)(=N)=O)cc2CC1` (single isomer, unassigned) [Example 115] showed an IC50 of 1000 to 10000 nM.
For the compound `CSc1ccc2c(c1)CCN(C(C)c1ccc3scnc3c1)CC2` (single isomer, unassigned) [Example 118], the IC50 is 1000 to 10000 nM.
In turn, `CSc1ccc2c(c1)CCN(C(C)c1ccc3scnc3c1)CC2` (single isomer, unassigned) [Example 119] showed an IC50 of less than 50 nM.
`COc1ccc2c(c1)CCN(C(C)c1ccc3nsnc3c1)CC2` (centres unmarked) [Example 1, 5-(1-(7-methoxy-1,2,4,5-tetrahydro-3H-benzo[d]azepin-3-yl)ethyl)benzo[c][1,2,5]thiadiazole] gave an IC50 of less than 50 nM.
The result for `COc1ccc2c(c1)CCN([C@@H](C)c1ccc3scnc3c1)CC2` [Example 5, (S)-5-(1-(7-methoxy-1,2,4,5-tetrahydro-3H-benzo[d]azepin-3-yl)ethyl)benzo[d]thiazole] reads less than 50 nM; that for `COc1ccc2c(c1)CCN(C(C)c1ccc3c(c1)OCC3)CC2` (centres unmarked) [Example 7, 3-(1-(2,3-dihydrobenzofuran-6-yl)ethyl)-7-methoxy-2,3,4,5-tetrahydro-1H-benzo[d]azepine], less than 50 nM; that for `CC(c1ccc2scnc2c1)N1CCc2ccc(S(C)(=N)=O)cc2CC1` (centres unmarked) [Example 113], less than 50 nM.
